Eight compounds from article PMC7016953 (Cells, 2020) can be followed below.

Assay [1] has as its target T1, TRPC3 (Homo sapiens, UniProt Q13507).
T1 construct: expressed in transfected cells
T1 sequence (Q13507 1-848 isoform Q13507-3): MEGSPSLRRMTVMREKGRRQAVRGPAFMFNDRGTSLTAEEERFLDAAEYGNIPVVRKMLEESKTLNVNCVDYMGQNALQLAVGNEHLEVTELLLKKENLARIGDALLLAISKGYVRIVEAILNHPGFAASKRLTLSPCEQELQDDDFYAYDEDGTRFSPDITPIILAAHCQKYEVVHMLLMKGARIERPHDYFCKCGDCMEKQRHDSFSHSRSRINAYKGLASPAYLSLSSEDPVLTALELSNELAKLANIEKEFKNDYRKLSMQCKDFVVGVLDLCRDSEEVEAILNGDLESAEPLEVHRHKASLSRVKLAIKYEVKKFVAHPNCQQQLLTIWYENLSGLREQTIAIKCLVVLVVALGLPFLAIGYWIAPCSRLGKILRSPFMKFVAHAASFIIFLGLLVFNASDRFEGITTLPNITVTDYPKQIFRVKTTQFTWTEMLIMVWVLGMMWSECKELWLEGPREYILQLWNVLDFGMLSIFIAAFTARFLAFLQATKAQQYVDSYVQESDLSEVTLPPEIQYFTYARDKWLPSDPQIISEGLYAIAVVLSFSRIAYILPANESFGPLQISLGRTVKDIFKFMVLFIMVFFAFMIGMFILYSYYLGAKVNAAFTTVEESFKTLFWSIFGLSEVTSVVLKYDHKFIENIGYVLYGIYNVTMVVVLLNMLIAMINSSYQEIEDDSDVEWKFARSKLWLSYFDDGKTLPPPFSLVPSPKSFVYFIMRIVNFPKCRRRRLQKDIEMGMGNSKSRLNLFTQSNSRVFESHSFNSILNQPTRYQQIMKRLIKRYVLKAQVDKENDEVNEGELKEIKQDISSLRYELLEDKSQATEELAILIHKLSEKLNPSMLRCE
The assay can be described thus: Fluo-4 Ca2+ influx assay in HEK TRPC3-YFP cell suspensions. It is filed as cell-based. The settings on record: for TRPC3 activation in concentration response analysis: fluo-4, up to 200 µM, compared with solvent (DMSO); for IC50: inhibitor 5 min, then 50 µM artemisinin, fluo-4, read-out: IC50 for inhibition of artemisinin-induced increases in [Ca2+]i; for effect of preincubation on responses to artemisinin (1–200 µM): 10 µM for 5 min.

The subject of assay [2] is T2, hTRPC7-YFP.
T2 construct: expressed in transfected cells
The assay can be described thus: Fluo-4 Ca2+ influx assay in HEK293 cells stably expressing TRPC7. It is filed as cell-based, human. Conditions: fluo-4 concentration response analysis.

The test system of assay [3] is PC12 cells (native TRPC3 channel complexes). The assay can be described thus: Whole-cell patch-clamp recordings in PC12 cells. The settings on record: 20 µM CBN 2910-0498, 10 µM SAR7334, or 10 µM GSK417654A. It counts as cell-based, rat. The protocol: The recordings of TRPC3, TRPC6, or TRPC7 membrane currents in HEK293 or PC12 cells were realized by using a Multiclamp 700B amplifier with a Digidata 1440A digitizer controlled by the PClamp 10 software (all Molecular Devices, Sunnyvale, CA, U.S.A.). Recordings were obtained at room temperature either in the whole-cell or in an outside-out configuration as indicated. Cells were seeded as described above, but at lower density, mounted in a chamber (Warner Instruments, Hamden, CT; U.S.A.), placed onto the stage of an inverted microscope, and perfused with required solution. The standard extracellular solution contained 140 mM NaCl, 5 mM CsCl, 2 mM MgCl2, 1 mM CaCl2, 10 mM HEPES, and 0.035% BSA adjusted to pH 7.4 with NaOH. The composition of standard intracellular solution was 140 mM CsCl, 1 mM MgCl2, 5 mM EGTA, and 10 mM HEPES adjusted to pH 7.25 with CsOH; the osmolarity was 295 mOsm l^−1. In outside-out measurements, the pipette solution contained 5 mM EGTA and 1.1 mM CaCl2 to achieve a calculated free Ca^2+ concentration of 100 nM.
Patch pipettes were pulled from borosilicate glass capillaries BG150F-8P (Science Products, Hofheim, Germany) with a PIP6 pipette puller (HEKA Elektronik, Lambrecht, Germany). […] In all whole-cell measurements, the series resistance was lower than 13 MΩ, and compensated by 70%. If the access was unstable during the experiment (increase in series resistance by more than 15% at the end of the experiment), the cell was omitted from the analysis. To record current/voltage (I/V) curves, voltage ramps (400 mV s^−1) ranging from –100 to +100 mV were applied. Currents were filtered at 3 kHz with a four-pole Bessel filter and sampled at 10 kHz. […]
Figure 9 Artemisinin-induced ionic currents in HEK293 cells and in PC12 cells are sensitive to established TRPC3 inhibitors. […] Concentration–response curves were normalized to responses measured without an inhibitor (controls), and IC50 values were obtained by fitting a four-parameter Hill equation to the data. […]
In general terms: In patch-clamp work, channel activity is measured electrically.

The subject of assay [4] is T3, heteromeric TRPC3:TRPC6 channel complexes.
T3 construct: expressed in transfected cells; host or cells: HEK293, stably co-transfected
The assay can be described thus: Fluo-4 Ca2+ influx assay in HEK293 cells co-expressing TRPC3 and TRPC6. Conditions: fluo-4 concentration response analysis. It counts as cell-based. The protocol: All fluorometric Ca^2+ assays were done in (4-(2-hydroxyethyl)-1-piperazineethanesulfonic acid) (HEPES)-buffered saline (HBS), containing 132 mM NaCl, 6 mM KCl, 1 mM MgCl2, 1 mM CaCl2, 5.5 mM D-glucose, 10 mM HEPES, and 0.035% bovine serum albumin (BSA) adjusted to pH 7.4 with NaOH. For measurements in Ca^2+-free bath solutions, a modified HBS without CaCl2 was supplemented with 200 µM ethylene glycol-bis(β-aminoethyl ether)-N,N,N′,N′-tetraacetic acid (EGTA).
The primary compound screen and the generation of concentration response curves in HEK293 cells or in PC12 cells were performed by using a custom-made fluorescence plate imager built into a robotic liquid handling station equipped with a 96-tip multichannel head (Freedom Evo 150, Tecan, Männedorf, Switzerland) as described previously. To this end, trypsinized cell suspensions were loaded with 4 µM fluo-4/AM (Invitrogen, Thermo Fisher Scientific, Waltham, MA, U.S.A.) in cell culture medium for 30 min at 37 °C. After brief centrifugation, cells were resuspended in HBS and dispensed into black pigmented, clear-bottom 384-well plates (Greiner µClear, Frickenhausen, Germany). Plates were mounted on the imager, and fluorescence signals were recorded with a cooled Zyla 5.5 camera (Andor, Belfast, UK) through a 515 nm long pass filter. The image acquisition was controlled by the µManager software (http://micro-manager.org), and excitation with a LED array (470 nm) was synchronized by the camera trigger output. After baseline recording for about 60 s, the compound libraries or serial dilutions of activators or inhibitors were added to the cells by the liquid handling device. When inhibitory potencies were evaluated, a second pipetting step with the respective reference agonist was performed. Fluorescence intensities were calculated from image stacks for each well with ImageJ (National Institutes of Health, Bethesda, MD, U.S.A.), corrected for background signals, and normalized to the initial intensities (F/F0). […]

Assay [5] deals with PC12 cells (native TRPC3 channel complexes). The assay can be described thus: [Ca2+]i analysis in fura-2-loaded PC12 cells. It is filed as cell-based, rat. The settings on record: artemisinin 50 or 100 µM; 6–12 experiments for each compound. The protocol: Human embryonic kidney 293 (HEK293) cells were stably transfected with expression plasmids that encode hTRPC3-YFP, hTRPC6-YFP, hTRPC7-YFP, mTRPC4ß-YFP, rTRPV1-CFP, rTRPV2-YFP, rTRPV3-YFP, mTRPV4-YFP, or hTRPM2 as previously described. Cell lines were cultured in Earle’s minimum essential medium (MEM; Sigma, Munich, Germany), supplemented with 10% fetal calf serum (Gibco Thermo Fisher Scientific, Darmstadt, Germany), 2 mM L-glutamine, and required concentrations of geneticin in a range of 0.4–1 mg/mL. A HEK293mTRPC5-YFP cell line was maintained and induced as described before. The HEK293mTRPM3α2 cells (expressing the Ca^2+-permeable main variant of mouse TRPM3) were kindly provided by Johannes Oberwinkler (Marburg, Germany), the HEK293hTRPA1 cells that constitutively overexpress the human TRPA1 were from Dr. Natalie Tigue and Dr. Steve Moore (GlaxoSmithKline, Harlow, UK). With the exception of mTRPC5-YFP, all cell lines constitutively overexpress the respective TRP channel under the control of a cytomegalovirus (CMV) promoter. A HEK cell line stably expressing the human protein kinase C (PKC) ε C-terminally tagged with YFP [13] was generated and maintained in the same medium as HEKTRPC3-YFP cells. PC12 cells were cultured in RPMI-1640 (Sigma, Munich, Germany) with 10% fetal calf serum, 2 mM L-glutamine, 100 U/mL penicillin, and 0.1 mg/mL streptomycin. For electrophysiological and single cell [Ca^2+]i imaging experiments, PC12 cells were plated onto 25 mm poly-L-lysine-coated glass coverslips and measured 24–48 h after seeding. All cells were maintained at 37 °C in a 5% CO2-aerated, humidified atmosphere.
The microfluorometric single-cell [Ca^2+]i analysis was performed on an inverted epifluorescence microscope (Carl Zeiss, Jena, Germany) and calibrated as described. Cells were grown on 25 mm coverslips and loaded with 4 µM fura-2/AM (AAT Bioquest, Sunnyvale, CA, U.S.A.) in HBS containing 0.2% BSA for 30 min at 37 °C. After gently rinsing the coverslips with HBS, coverslips were mounted in a bath chamber and superfused with HBS containing 0.035% BSA.
Figure 7 Expression of TRPC3 and functional responses to TRPC activators in PC12 rat pheochromocytoma cells. (A) Immunofluorescence analysis of TRPC3 (green channel) and tyrosine hydroxylase (TH; red channel) expression in PC12 cells. Nuclei were counterstained with DAPI (blue channel). Bars: 20 µm scale. Time course of the [Ca^2+]i (B) and averaged basal and peak [Ca^2+]i values (C) were recorded by microfluorometric analysis in fura-2-loaded PC12 cells grown on glass coverslips. […] Data represent averages (B) or means and S.D. (C) of 6–12 imaging experiments for each compound. Significant increases compared to the respective basal values are indicated (#: p < 0.05; Student´s t-test for paired data).

In the case of `CCO[C@H]1O[C@@H]2O[C@@]3(C)CC[C@H]4[C@H](C)CC[C@@H]([C@H]1C)[C@@]24OO3` [arteether], in assay [1], the “TRPC3 activation in concentration response analysis” value is recorded as “did not exert signals that were significantly stronger than responses to the solvent”. The “effect on TRPC7” value in assay [2] is given as “inhibited”.

Turning to `C[C@H]1[C@H](OC(=O)CCC(=O)O)O[C@@H]2O[C@@]3(C)CC[C@H]4[C@H](C)CC[C@@H]1[C@@]24OO3` [artesunate], the “TRPC3 activation in concentration response analysis” value in assay [1] was “did not exert signals that were significantly stronger than responses to the solvent”.

Usually IC50 stands for the point on the concentration scale where inhibition reaches its midpoint. Regarding `N#Cc1ccc(O[C@@H]2c3ccccc3C[C@H]2N2CCC[C@@H](N)C2)c(Cl)c1` [SAR7334], the IC50 in assay [1] turned out to be 1.4 µM. Further, in assay [3], the “effect on ionic currents stimulated by 50 µM artemisinin in PC12 cells” value is “rapidly reversed”.

Regarding `O=C(NCCCCCCNC(=O)ON=C1CCCCC1)ON=C1CCCCC1` [RHC 80267], the “effect of preincubation on responses to artemisinin (1–200 µM)” value in assay [1] is “did not increase the responses”.

Regarding `O=c1c2ccccc2[nH]c(=S)n1CCN1CCC(=C(c2ccc(F)cc2)c2ccc(F)cc2)CC1` [R59949], the “effect of preincubation on responses to artemisinin (1–200 µM)” value in assay [1] is “did not increase the responses”.

Turning to `CO[C@H]1O[C@@H]2O[C@@]3(C)CC[C@H]4[C@H](C)CC[C@@H]([C@H]1C)[C@@]24OO3` [artemether], in assay [1] (fluo-4, HEK TRPC3-YFP cell suspensions, read-out: potency to activate Ca2+ entry through TRPC3), the EC50 turned out to be 14.8 µM. Moreover, in assay [2], the “effect on TRPC7” value is “inhibited”. The “response of cells stably transfected with both TRPC3 and TRPC6” value in assay [4] is reported as “in a very similar fashion as HEKTRPC3-YFP cells”.

Turning to `COc1ccc(Nc2nc(C(=O)N3CCc4ccccc4C3)cs2)cc1` [GSK417654A], in assay [1], the IC50 turned out to be 0.5 µM. The “effect on ionic currents stimulated by 50 µM artemisinin in PC12 cells” value in assay [3] was “rapidly reversed”.

In the case of `O=C(c1cc2c(s1)CCCCC2)N1CCC(n2c(=O)[nH]c3ccccc32)CC1` [GSK-1702934A], the “[Ca2+]i in fura 2-loaded PC12 cells” value in assay [5] is “significant increases in [Ca^2+]i”.
